{
  "source": "paper PMC6367362",
  "about": "“MD001, a Novel Peroxisome Proliferator-activated Receptor α/γ Agonist, Improves Glucose and Lipid Metabolism” (Scientific Reports, 2019)",
  "key": {"PPARγ": {"target": "T1, PPARγ (Homo sapiens, UniProt P37231)", "T1 construct": "HA; made in house", "T1 sequence (P37231 1-505)": "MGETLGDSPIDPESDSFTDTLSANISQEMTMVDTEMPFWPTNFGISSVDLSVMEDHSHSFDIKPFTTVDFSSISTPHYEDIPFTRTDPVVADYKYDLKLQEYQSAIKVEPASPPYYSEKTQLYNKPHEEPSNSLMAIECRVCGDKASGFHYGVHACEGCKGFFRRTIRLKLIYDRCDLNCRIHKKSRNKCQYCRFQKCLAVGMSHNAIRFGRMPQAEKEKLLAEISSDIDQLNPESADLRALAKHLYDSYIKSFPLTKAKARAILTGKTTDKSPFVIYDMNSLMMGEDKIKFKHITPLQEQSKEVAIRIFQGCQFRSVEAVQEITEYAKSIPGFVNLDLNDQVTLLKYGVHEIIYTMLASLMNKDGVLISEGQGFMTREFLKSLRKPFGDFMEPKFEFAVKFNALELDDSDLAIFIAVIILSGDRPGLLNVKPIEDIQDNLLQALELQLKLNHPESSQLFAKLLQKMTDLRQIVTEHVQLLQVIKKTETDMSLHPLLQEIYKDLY", "test": "SPR analysis of binding to immobilised HA-PPARγ", "conditions": "MD001 31.25-500 μM", "procedure": "SPR analysis was performed using a Reichert SR7500DC (Reichert Technologies, Depew, NY, USA). HA-PPARα, HA-PPARβ/δ, and HA-PPARγ were purified as previously described[23] and was immobilised on CMDH chips (Reichert Technologies) according to the manufacturer’s instructions. MD001 was loaded in a dose-dependent manner (31.25, 62.5, 125, 250, and 500 μM) for the SPR assay. The dissociation constant (KD) value was determined using the Scrubber2 program (Informer Technologies, Inc., Los Angeles, CA, USA)."}, "HepG2 cells": {"test_system": "HepG2 cells", "test": "qRT-PCR gene expression in HepG2 cells", "assay_type": "cell-based, human", "conditions": "24 h", "procedure": "Figure 2 MD001 induces the expression of target genes through PPARα and PPARγ activation. HEK293 cells were transiently co-transfected with human HA-PPARα (A) and HA-PPARγ (B) expression vectors along with the reporter plasmid (PPRE-pk-Luc) or control reporter plasmid (pk-Luc) with Renilla vector for 24 h. Cells were treated with MD001 (10 μM), rosiglitazone (rosi) (10 μM) or WY14643 (WY) (10 μM) for 24 h. Luciferase activity was normalised to Renilla luciferase activity as described in the Methods section. **, vs. vehicle. (C) HepG2 cells were treated with MD001 (10 μM) for 24 h, and total RNA was isolated and synthesised into cDNA. Relative expression was quantitated using qRT-PCR. **, vs. vehicle. (D,E) HepG2 cells were transfected with control siRNA, PPARα siRNA (D), or PPARγ siRNA (E) for 48 h and treated with vehicle, WY14643 (10 μM), rosiglitazone (10 μM) or MD001 (10 μM) for 24 h. Subsequently, cells were harvested for total RNA isolation. Relative expression of target genes was quantitated using qRT-PCR. ^#, vs. control siRNA; ^‡, vs. control siRNA/vehicle; ^§, vs. control siRNA/WY; * and **, vs. control siRNA/MD001. Data represent the mean ± SD of three independent experiments. *P < 0.05, **P < 0.01, ^#P < 0.01, ^‡P < 0.01, and ^§P < 0.01.\nFigure 3 MD001 promotes glucose consumption by induction of GLUT expression. HepG2 (A), differentiated 3T3-L1 adipocytes (B), and differentiated C2C12 myotubes (C) were treated with vehicle, MD001 (10, 50 μM), or rosiglitazone (rosi, 10 μM) for 24 h; glucose consumption was examined as described in the Methods section. Cells were harvested for total RNA isolation. Relative expression levels of GLUT2 (D) and GLUT4 (E,F) were quantitated using qRT-PCR. *, **, and ^† vs. vehicle. Data represent the mean ± SD of three independent experiments. *P < 0.05, **P < 0.01, and ^†P < 0.01.\nFigure 4 MD001 stimulates fatty acid oxidation in vitro. HepG2 (A), differentiated 3T3-L1 adipocyte (B), and differentiated C2C12 myotubes (C) were treated with vehicle or MD001 (10 μM) for 24 h and total RNA was isolated for cDNA synthesis. Relative gene expressions were analysed by qRT-PCR. HepG2 (D), differentiated 3T3-L1 adipocytes (E), and differentiated C2C12 myotubes (F) were treated with vehicle, MD001 (10 μM), or WY14643 (WY) (10 μM) for 24 h and the fatty acid oxidation rate was analysed as described in the Methods section. To confirm whether the fatty acid oxidation rate enhanced by MD001 is mediated by PPARα, HepG2 (G), differentiated 3T3-L1 (H), and differentiated C2C12 myotubes (I) were transfected with control or PPARα siRNA (20 nM) for 48 h, followed by treatment with vehicle, MD001 (10 μM), or WY14643 (WY) (10 μM) for 24 h. WY14643 was treated as positive control. *, **, vs. vehicle; ^† and ^‡, vs. vehicle/control siRNA; ^§, vs. WY/control siRNA; ^¶, vs. MD001/control siRNA. Data represent the mean ± SD of three independent experiments. *P < 0.05, **P < 0.01, ^†P < 0.01, ^‡P < 0.05, ^§P < 0.01, and ^¶P < 0.05.\nTotal RNA was isolated using an RNeasy kit (Qiagen, Germantown, MD, USA) according to the manufacturer’s instructions. Complementary DNA (cDNA) was synthesised by reverse transcription using 0.5 μg of total RNA, and quantitative RT-PCR was performed using Power SYBR Green PCR Master Mix (ABI Thermo Fisher Scientific, Foster City, CA, USA) on a StepOne 48-well real-time PCR system (ABI/Thermo Fisher Scientific). GAPDH was used as an endogenous control. Primer sequences are summarized in Supplementary Table S1."}},
  "data": [
    {"compound": "Cc1c(O)cc(O)c2c(-c3ccccc3)c(C(=O)/C=C/c3ccccc3)c(=O)oc12", "note": "[MD001]", "values": [
      {"measurement": "Kd", "setting": "PPARγ", "value": "0.14 ± 0.03", "unit": "µM"},
      {"measurement": "expression of PPARα target genes ACOX, CPT, mCAD", "setting": "HepG2 cells; HepG2, control siRNA, 10 μM", "value": "significantly increased"},
      {"measurement": "expression of PPARγ target genes GK, CD36, FABP1", "setting": "HepG2 cells; HepG2, control siRNA, 10 μM", "value": "significantly increased"},
      {"measurement": "expression levels of ACOX, CPT, MLYCD, and FATP", "setting": "HepG2 cells; HepG2, 10 μM", "value": "significantly increased"},
      {"measurement": "expression of PPARα, PPARγ, and RXR genes", "setting": "HepG2 cells; HepG2, 10 μM", "value": "significantly increased"},
      {"measurement": "expression of glucose transporter GLUT2", "setting": "HepG2 cells; HepG2, 10, 50 μM", "value": "significantly increased"}
    ]}
  ]
}
